Test results taken from ChEMBL document CHEMBL1201862, “PubChem BioAssay data set” (2004).
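Results reflect a 48-hour exposure of cells in 96-well plates to compound at five concentrations. GI50: concentration for 50% inhibition of growth.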 Activity calls are given as the source filed them. Rule as the data show it: active = GI50 up to about 1.1 µM and inactive = higher.

Experiments:
Experiment in all cases: NCI tumour cell line growth inhibition, 48 h
[1] = system: SNB-19
[2] = system: SW-620
[3] = system: HCC 2998
[4] = system: RPMI-8226
[5] = system: Hs-578T
[6] = system: OVCAR-4
[7] = system: OVCAR-8
[8] = system: MOLT-4
[9] = system: CAKI-1
[10] = system: MDA-MB-231
[11] = system: SK-OV-3
[12] = system: SK-MEL-28
[13] = system: LOX IMVI
[14] = system: RXF 393
[15] = system: MDA-N
[16] = system: COLO 205
[17] = system: SK-MEL-2
[18] = system: NCI/ADR-RES
[19] = system: UACC-257
[20] = system: CCRF-CEM

Row | SMILES | GI50 [1] | GI50 [2] | GI50 [3] | GI50 [4] | GI50 [5] | GI50 [6] | GI50 [7] | GI50 [8] | GI50 [9] | GI50 [10] | GI50 [11] | GI50 [12] | GI50 [13] | GI50 [14] | GI50 [15] | GI50 [16] | GI50 [17] | GI50 [18] | GI50 [19] | GI50 [20]
1 | O=C(NC1(C(=O)O)CC1c1ccccc1)c1ccccc1 (centres undefined) | > 100 µM (inactive) | > 100 µM (inactive) | > 100 µM (inactive) | > 100 µM (inactive) | > 100 µM (inactive) | > 100 µM (inactive) | > 100 µM (inactive) | > 100 µM (inactive) | > 100 µM (inactive) | > 100 µM (inactive) | > 100 µM (inactive) | > 100 µM (inactive) | > 100 µM (inactive) | > 100 µM (inactive) | > 100 µM (inactive) | > 100 µM (inactive) | > 100 µM (inactive) | > 100 µM (inactive) | > 100 µM (inactive) | 
2 | C[C@H](NC1=C(Cl)C(=O)c2c(O)ccc(O)c2C1=O)C(=O)Nc1ccc([N+](=O)[O-])cc1 | 3.06 µM (inactive) | 3.05 µM (inactive) | 3.33 µM (inactive) | 1.84 µM (inactive) | 4.57 µM (inactive) | 1.73 µM (inactive) | 2.37 µM (inactive) | 10 µM (inactive) | 4.13 µM (inactive) | 1.91 µM (inactive) | 6.89 µM (inactive) | 2.03 µM (inactive) |  | 1.56 µM (inactive) | 2.4 µM (inactive) | 1.59 µM (inactive) | 3.52 µM (inactive) | 1.81 µM (inactive) | 1.95 µM (inactive) | 0.305 µM (active)
3 | CCOC(=O)/C(C#N)=C\c1ccc(N(CCC(=O)O)CCC(=O)O)c(I)c1 | > 10 µM (inactive) | > 10 µM (inactive) | > 10 µM (inactive) | > 10 µM (inactive) | > 10 µM (inactive) | > 10 µM (inactive) | > 10 µM (inactive) | > 10 µM (inactive) | > 10 µM (inactive) | > 10 µM (inactive) | > 10 µM (inactive) | > 10 µM (inactive) | > 10 µM (inactive) | > 10 µM (inactive) | > 10 µM (inactive) | > 10 µM (inactive) |  | > 10 µM (inactive) | > 10 µM (inactive) | > 10 µM (inactive)
4 | O=C1C(Cl)=C(Cl)C(=O)C2=C1C1c3ccccc3C2c2ccccc21 | 49.5 µM (inactive) | 29.4 µM (inactive) | 63.8 µM (inactive) | 25.6 µM (inactive) | 39.4 µM (inactive) | 34.3 µM (inactive) | > 100 µM (inactive) | > 100 µM (inactive) |  | 31.1 µM (inactive) | 94.4 µM (inactive) | 38.7 µM (inactive) |  | 30.8 µM (inactive) | > 100 µM (inactive) | 24.2 µM (inactive) | > 100 µM (inactive) | 94.8 µM (inactive) | > 100 µM (inactive) | 59 µM (inactive)
5 | Cc1ccc(OCCn2cc(Nc3ccccc3)c(=O)[nH]c2=O)cc1 | > 100 µM (inactive) | > 100 µM (inactive) | > 100 µM (inactive) | > 100 µM (inactive) | 22.1 µM (inactive) | > 100 µM (inactive) | > 100 µM (inactive) | > 100 µM (inactive) | > 100 µM (inactive) | > 100 µM (inactive) |  | > 100 µM (inactive) | > 100 µM (inactive) | > 100 µM (inactive) | > 100 µM (inactive) | > 100 µM (inactive) | > 100 µM (inactive) | > 100 µM (inactive) | > 100 µM (inactive) | > 100 µM (inactive)
6 | Cc1cc2c(nn1)-c1ccccc1C2=O | > 10 µM (inactive) | > 10 µM (inactive) | > 10 µM (inactive) | > 10 µM (inactive) | > 10 µM (inactive) | > 10 µM (inactive) | > 10 µM (inactive) | > 10 µM (inactive) | > 10 µM (inactive) | > 10 µM (inactive) | > 10 µM (inactive) | > 10 µM (inactive) | > 10 µM (inactive) | > 10 µM (inactive) | > 10 µM (inactive) | > 10 µM (inactive) | > 10 µM (inactive) | > 10 µM (inactive) |  | > 10 µM (inactive)
7 | O=C1NC(=S)NC1C(Cc1ccccc1)c1ccco1 (centres undefined) | > 100 µM (inactive) | > 100 µM (inactive) | > 100 µM (inactive) | 84.9 µM (inactive) | > 100 µM (inactive) | > 100 µM (inactive) | > 100 µM (inactive) | 81.7 µM (inactive) | > 100 µM (inactive) | > 100 µM (inactive) | > 100 µM (inactive) | > 100 µM (inactive) | > 100 µM (inactive) | > 100 µM (inactive) | > 100 µM (inactive) | > 100 µM (inactive) |  | > 100 µM (inactive) | > 100 µM (inactive) | 68.2 µM (inactive)
8 | COc1ccc(OC)c2c1-c1nnnn1CCC2(C)C | > 100 µM (inactive) | > 100 µM (inactive) | > 100 µM (inactive) | > 100 µM (inactive) | > 100 µM (inactive) | > 100 µM (inactive) | > 100 µM (inactive) | > 100 µM (inactive) |  | > 100 µM (inactive) | > 100 µM (inactive) | > 100 µM (inactive) | > 100 µM (inactive) | > 100 µM (inactive) | > 100 µM (inactive) | > 100 µM (inactive) | > 100 µM (inactive) | > 100 µM (inactive) | > 100 µM (inactive) | > 100 µM (inactive)
9 | CC1(C)CC(=O)c2c([nH]c(=S)c(C#N)c2-c2ccc(Br)cc2)C1 | 45.5 µM (inactive) | 46.9 µM (inactive) | 35.8 µM (inactive) |  | 29 µM (inactive) | 34.4 µM (inactive) | 49.9 µM (inactive) |  | 20 µM (inactive) | 92.5 µM (inactive) | > 100 µM (inactive) | 44.1 µM (inactive) | 57.5 µM (inactive) | 33.7 µM (inactive) | 70.5 µM (inactive) | > 10 µM (inactive) | 24.9 µM (inactive) | > 100 µM (inactive) | 52.2 µM (inactive) | 5.85 µM (inactive)
10 | Cc1cccc(N2C(=O)C3c4[nH]c5ccccc5c4C4CCC(C(C)(C)C)CC4C3C2=O)c1C (centres undefined) | > 100 µM (inactive) | 40 µM (inactive) | > 100 µM (inactive) | > 100 µM (inactive) | 25.8 µM (inactive) |  | 38.9 µM (inactive) | > 100 µM (inactive) | > 100 µM (inactive) | 19 µM (inactive) | > 100 µM (inactive) |  | > 100 µM (inactive) | > 100 µM (inactive) | > 100 µM (inactive) | > 100 µM (inactive) | > 100 µM (inactive) | > 100 µM (inactive) | > 100 µM (inactive) | 56.6 µM (inactive)
11 | O=C1CCC[C@]2(CCC[C@@H](O)C2)N1 | > 100 µM (inactive) |  | > 100 µM (inactive) |  | > 100 µM (inactive) | > 100 µM (inactive) | > 100 µM (inactive) | > 10 µM (inactive) | > 100 µM (inactive) | > 100 µM (inactive) | > 100 µM (inactive) |  | > 100 µM (inactive) | > 100 µM (inactive) | > 100 µM (inactive) | > 100 µM (inactive) | > 100 µM (inactive) | > 100 µM (inactive) | > 100 µM (inactive) | > 100 µM (inactive)
